The supplement of paper PMC7840683
± gives the standard deviation of the averaged measurements.

Tested on: HepaRG
Test: LDH release cytotoxicity, % of total lysis control; higher = more cytotoxic
Conditions: 48 h
Summary of the method: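 Single-lot HepaRG cells in collagen I-coated 96-well plates were treated for 48 h in serum-free induction medium containing 0.5% DMSO with test chemicals in eight-point half-log series up to 100 µM. For total lysis, wells received 0.1% Triton X. LDH in 50 µL spent medium was assayed by resorufin fluorescence with CytoTox-ONE. Percent cytotoxicity was normalized to the on-plate vehicle and total lysis controls, with duplicates averaged.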

SMILES	LDH release cytotoxicity (0.03162 µM) [%]	LDH release cytotoxicity (0.1 µM) [%]	LDH release cytotoxicity (0.3162278 µM) [%]	LDH release cytotoxicity (1 µM) [%]	LDH release cytotoxicity (3.16228 µM) [%]	LDH release cytotoxicity (10 µM) [%]	LDH release cytotoxicity (31.6228 µM) [%]	LDH release cytotoxicity (100 µM) [%]	LDH release cytotoxicity (0.031623 µM) [%]	LDH release cytotoxicity (0.316228 µM) [%]	LDH release cytotoxicity (0.0320971 µM) [%]	LDH release cytotoxicity (0.1015 µM) [%]	LDH release cytotoxicity (0.320971 µM) [%]	LDH release cytotoxicity (1.015 µM) [%]	LDH release cytotoxicity (3.2097118 µM) [%]	LDH release cytotoxicity (10.15 µM) [%]	LDH release cytotoxicity (32.0971 µM) [%]	LDH release cytotoxicity (101.5 µM) [%]
CCOC(=O)C(C)(C)Oc1ccc(Cl)cc1 [Clofibrate]	-0.811 ± 0.59	-0.737 ± 0.38	-1.03 ± 0.3	-0.873 ± 1.4	-1.56 ± 0.66	-0.987 ± 0.99	-0.0208 ± 0.16	1.51 ± 0.15	–	–	–	–	–	–	–	–	–	–
COP(=O)(OC)C(O)C(Cl)(Cl)Cl (configuration not stated) [Trichlorfon]	0.0437 ± 1.6	-1.39 ± 0.081	-0.758 ± 0.2	-1.43 ± 0.39	19.7 ± 0.21	73.1 ± 2.5	76.8 ± 2.2	76.7 ± 1.5	–	–	–	–	–	–	–	–	–	–
CCCCCCCCOC(=O)c1ccc(C(=O)OCCCCCCCC)c(C(=O)OCCCCCCCC)c1 [Tri-n-octyl trimellitate]	–	-3.02 ± 1.1	–	-1.71 ± 0.9	-2.25 ± 0.55	-2.21 ± 0.31	-0.9931 ± 0.0017	1.54 ± 0.94	-2.2 ± 0.31	-2.45 ± 0.77	–	–	–	–	–	–	–	–
N#Cc1ccc(N(CC(N)=O)CC(F)(F)F)cc1C(F)(F)F	-0.784 ± 0.86	-0.777 ± 1.4	-1.03 ± 1.4	-1.38 ± 0.065	-0.891 ± 1.1	0.346 ± 0.016	-0.599 ± 0.47	-0.34 ± 0.95	–	–	–	–	–	–	–	–	–	–
CCCCOC(=O)c1ccccc1 [Butyl benzoate]	-1.31 ± 0.5	-1.78 ± 0.16	-2.41 ± 0.59	-1.63 ± 0.22	-1.96 ± 0.76	-1.46 ± 0.092	-1.03 ± 0.64	0.0897 ± 0.95	–	–	–	–	–	–	–	–	–	–
NCCO [Ethanolamine]	-2.14 ± 1.3	-2 ± 1.6	-1.29 ± 0.49	-1.55 ± 0.046	-0.642 ± 0.088	-0.777 ± 0.073	-0.101 ± 0.76	0.0783 ± 0.76	–	–	–	–	–	–	–	–	–	–
CCCCC(CC)COC(=O)c1ccccc1C(=O)O (configuration not stated) [MEHP]	–	–	–	–	–	–	–	–	–	–	-1.24 ± 1.4	-1.27 ± 0.27	-1.13 ± 1.5	-1.47 ± 1.3	-1.28 ± 0.83	-0.944 ± 0.92	-1.07 ± 0.41	0.594 ± 0.91
C[N+](C)(C)CC1CO1 (configuration not stated) [Glycidyl trimethylammonium chloride]	-0.794 ± 0.83	-0.64 ± 0.72	-0.926 ± 0.041	-1.32 ± 0.64	-1.48 ± 0.5	-0.844 ± 0.16	-0.342 ± 0.33	0.366 ± 0.66	–	–	–	–	–	–	–	–	–	–
Cc1ccc(S(=O)(=O)O)cc1C [Sodium xylenesulfonate]	-0.646 ± 0.56	-1.44 ± 0.33	-1.14 ± 1.1	-1.21 ± 0.25	-1.1 ± 0.39	-1.23 ± 0.36	-1.25 ± 0.27	1.23 ± 0.65	–	–	–	–	–	–	–	–	–	–
O=C1C(=O)C(c2ccc(O)c(O)c2)Oc2cc(O)cc(O)c21 (configuration not stated) [Quercetin]	-0.715 ± 0.19	-0.382 ± 0.42	-1.09 ± 0.51	-1.24 ± 0.47	-0.569 ± 0.57	-1.09 ± 0.29	-1.1 ± 0.47	10.6 ± 1.9	–	–	–	–	–	–	–	–	–	–
Cc1ccc(C(C)C)c(O)c1 [Thymol]	-0.805 ± 1.1	-0.378 ± 0.63	-1.08 ± 0.33	-0.734 ± 0.81	-1.25 ± 0.71	-0.124 ± 0.09	0.381 ± 0.15	1.26 ± 0.35	–	–	–	–	–	–	–	–	–	–
CCCCOCN(C(=O)CCl)c1c(CC)cccc1CC [Butachlor]	0.674 ± 1.6	-0.43 ± 0.44	-0.96 ± 0.72	-0.4246 ± 0.0032	-0.143 ± 1.2	0.287 ± 2.1	0.713 ± 0.79	2.96 ± 1.9	–	–	–	–	–	–	–	–	–	–
[Cl][Hg][Cl] [Mercuric chloride]	-0.633 ± 0.43	0.0218 ± 0.9	-0.338 ± 0.41	-0.378 ± 0.19	0.165 ± 0.14	-0.398 ± 0.26	-1.52 ± 0.15	-4.6 ± 0.1	–	–	–	–	–	–	–	–	–	–
O=C(c1ccccc1)C1CCCCC1 [Cyclohexylphenylketone]	-1.79 ± 0.41	-2.63 ± 2.5	-0.957 ± 0.23	-1.4 ± 1	-1.03 ± 1	-0.851 ± 0.87	-0.8 ± 0.37	0.0978 ± 0.62	–	–	–	–	–	–	–	–	–	–
CC12CCC3c4ccc(O)cc4CCC3C1CCC2O (stereo not drawn) [17alpha-Estradiol]	-0.65 ± 1.4	-1.91 ± 0.5	-1.67 ± 0.056	-1.6 ± 0.054	-1.26 ± 0.039	-1.72 ± 0.24	-0.072 ± 0.52	1.51 ± 0.69	–	–	–	–	–	–	–	–	–	–
O=C(O)c1ccccc1C(c1ccc(O)cc1)c1ccc(O)cc1 [Phenolphthalin]	-1.69 ± 0.25	-1.91 ± 1.3	-2.15 ± 0.91	-2.6 ± 0.41	-1.53 ± 0.2	-1.03 ± 0.2	-1.15 ± 0.7	0.0929 ± 0.98	–	–	–	–	–	–	–	–	–	–
Nc1ccc(-c2ccc(N)cc2)cc1 [Benzidine]	-0.869 ± 4.3	-2.2 ± 0.13	-3.09 ± 0.054	-2.37 ± 0.27	-2.3 ± 0.28	0.338 ± 4	-0.733 ± 0.045	0.306 ± 0.029	–	–	–	–	–	–	–	–	–	–
CCN(CC)CCNc1ccc(CNC=O)c2sc3ccc(OC)cc3c(=O)c12	-0.844 ± 1.3	-1.66 ± 0.14	-0.986 ± 0.35	-1.41 ± 0.78	1.37 ± 0.86	2.31 ± 0.54	5.144 ± 0.031	81.1 ± 6.4	–	–	–	–	–	–	–	–	–	–
Cc1cc(Cc2ccc(N)c(C)c2)ccc1N [4,4'-Diamino-3,3'-dimethyldiphenylmethane]	-1.54 ± 0.07	-0.939 ± 0.25	-0.759 ± 0.17	-1.39 ± 0.074	-0.662 ± 0.88	-0.124 ± 0.55	-0.39 ± 0.76	-0.749 ± 1.9	–	–	–	–	–	–	–	–	–	–
